Data set [1] concerns Endothelin-converting enzyme (ECE). The data set is described as follows: ECE assay in neuroblastoma cells. The format is cell-based, human. As to conditions: bryostatin 0.27 nM, BR-101 1 μM, BR-111 1 μM; FIG. 14. Here is the method: ECE assay. […] neuroblastoma cells were incubated with bryostatin (0.27 nM), BR-101 (DCP-LA) (1 μM), and BR-111 (DHA-CP6) (1 μM). Endothelin-converting enzyme (ECE) was measured fluorimetrically using the method of Johnson and Ahn (Anal. Biochem. (2000), vol. 286, pp. 112-118). A sample of cell homogenate (20 μl) was incubated in 50 mM MES-KOH, pH 6.0, 0.01% C12E10 (polyoxyethylene-10-lauryl ether), and 15 μM McaBK2 (7-Methoxycoumarin-4-acetyl [Ala7-(2,4-Dinitrophenyl)Lys9]-bradykinin trifluoroacetate salt) (Sigma-Aldrich). After 60 min at 37° C., the reaction was quenched by adding trifluoroacetic acid to 0.5%. The sample was diluted to 1.4 ml with water and the fluorescence was measured at ex=334 nm, em=398 nm.

The test system of data set [2] is Aβ in neuro2a (N2a) neuroblastoma cells. The data set is described as follows: Aβ production in N2a cells transfected with human APPSwe/PS1D (ELISA). As to conditions: for levels of intracellular Aβ / levels of secreted Aβ: various concentrations; for levels of intracellular Aβ: FIG. 11a; for levels of secreted Aβ: FIG. 11b; for concentration dependence of Aβ inhibition: up to 10 μM to 100 μM, no evidence of downregulation. In kind it is cell-based, mouse. Here is the method:
Cell culture. Rat hippocampal H19-7/IGF-IR cells (ATCC, Manassas, Va.) were plated onto poly-L-lysine coated plates and grown at 35° C. in DMEM/10% FCS for several days until about 50% coverage was obtained. The cells were then induced to differentiate into a neuronal phenotype by replacing the medium with 5 ml N2 medium containing 10 ng/ml basic fibroblast growth factor at 39° C. and grown in T-75 flasks at 37° C. Human SH-SY5Y neuroblastoma cells (ATCC) were cultured in 45% F12K/45% MEM/10% FCS. Mouse N2A neuroblastoma cells were cultured in DMEM/10% FCS without glutamine. Rat hippocampal neurons from 18-day-old embryonic Sprague Dawley rat brains were plated on 12- or 96-well plates coated with poly-D-lysine (Sigma-Aldrich, St. Louis, Mo.) in B-27 neurobasal medium containing 0.5 mM glutamine and 25 μM glutamate (Invitrogen, Carlsbad, Calif.) and cultured for three days in the medium without glutamate. The neuronal cells were grown under 5% CO2 in an incubator maintained at 37° C. for 14 days.
(§1) Aβ Measurement and Cell Viability Assay. Aβ was measured using an Aβ 1-42 human fluorimetric ELISA kit (Invitrogen) according to the manufacturer's instructions. Results were measured in a Biotek Synergy HT microplate reader. AlamarBlue and CyQuant NF (Invitrogen) according to the manufacturer's instructions.
To measure the effects of PKCε activation on Aβ production, mouse neuro2a (N2a) neuroblastoma cells transfected with human APPSwe/PSID were used, which produce large quantities of Aβ. Petanceska et al., J Neurochem. (1996), vol. 74, pp. 1878-1884. […] With bryostatin, which activates PKC by binding to the diacylglycerol-binding site, the inhibition was biphasic with concentrations of 20 nM or higher producing no net effect. This may be explained by the ability of this class of PKC activators to downregulate PKC when used at high concentrations.
(In general: An ELISA detects its analyte on a solid surface through an enzyme-linked reagent.)

The test system of data set [3] is SH-SY5Y neuroblastoma cells. The data set is described as follows: Cell survival and proliferation (alamar Blue, CyQuant). The format is cell-based, human. Here is the method:
as §1
(Alamar Blue is a resazurin reagent that responds to reducing activity.)

Data set [4] deals with TACE in N2a neuroblastoma cells. As to the kind of experiment: TACE assay, N2a cells. The format is cell-based. As to conditions: N2a mouse neuroblastoma cells, FIG. 13a. Here is the method:
(§2) FIGS. 13a, 13b and 13c show effects of (FIG. 13a) bryostatin, BR-101 (DCP-LA) and BR-111 (DHA-CP6) on TACE activity in N2a neuroblastoma cells transfected with human APPSwe/PS1D; (FIG. 13b) various concentrations of bryostatin on TACE activity in rat cortical primary neurons; and (FIG. 13c) BR-111 (DHA-CP6) on TACE activity in rat cortical primary neurons.
(§3) TACE Assay. TACE was measured by incubating 5 μl cell homogenate, 3 μl buffer (50 mM Tris-HCl 7.4 plus 25 mM NaCl plus 4% glycerol), and 1 μl of 100 μM TACE substrate (Aβz-[…]-DPa) (Calbiochem) for 20 min at 37° C. 1.5-ml polypropylene centrifuge tubes. Jin et al., Anal. Biochem. (2002), vol. 302, pp. 269-275. The reaction was stopped by cooling to 4° C. The samples were diluted to 1 ml and the fluorescence was rapidly measured (ex=320 nm, em=420 nm) in a Spex Fluorolog 2 spectrofluorometer.
(§4) Buxbaum et al., J Biol. Chem. (1998), vol. 273, pp. 27765-27767; Etcheberrigaray et al., Proc. Natl. Acad. Sci. USA (2006), vol. 103, pp. 8215-8220. However, many of these earlier studies were carried out in fibroblasts and other non-neuronal cell types, which appear to respond differently to PKC activators than neurons.

The test system of data set [5] is TACE in primary neurons. The data set is described as follows: TACE assay, rat primary neurons. The format is cell-based. As to conditions: FIG. 13b and 13c. Here is the method:
as §2, §3, §4

Each structure is given as a SMILES string.

For `CCCCCC1CC1CC1CC1CCCCCCCC(=O)O` (centres unmarked) [BR-101, 2-[(2-pentylcyclopropyl)methyl]cyclopropaneoctanoic acid], the ECE activity entry in data set [1] is “sustained increase”. In data set [2] (24 hours), the “levels of intracellular Aβ” value is reported as “markedly reduced” and the “levels of secreted Aβ” value is reported as “markedly reduced”. In addition, in data set [2], the “concentration dependence of Aβ inhibition” value is “monotonically increasing inhibition”. In data set [3], the “effect on cell survival (alamar Blue)” value is on record as “no effect” and the “effect on proliferation (CyQuant)” value is “no effect”. Moreover, the TACE activity result in data set [4] is given as “small increases”.

As to `CCC1CC1CC1CC1CC1CC1CC1CC1CC1CC1CC1CC1CCC(=O)OC` (centres unmarked) [BR-111, methyl-3-(2-((2-((2-((2-((2-((2-ethylcyclopropyl)methyl)cyclopropyl)methyl)cyclopropyl)methyl)-cyclopropyl)methyl)cyclopropyl)methyl)cyclopropyl)propanoate], the ECE activity result in data set [1] is recorded as “sustained increase”. Also, in data set [2] (24 hours), the “levels of intracellular Aβ” value was “markedly reduced” and the “levels of secreted Aβ” value is listed as “markedly reduced”. Further, the “concentration dependence of Aβ inhibition” value in data set [2] is “monotonically increasing inhibition”. In addition, the TACE activity entry in data set [5] is “small increases”. Further, in data set [3], the “effect on cell survival (alamar Blue)” value was “no effect” and the “effect on proliferation (CyQuant)” value is “no effect”. In addition, in data set [4], the TACE activity entry is reported as “small increases”.

Consider `CCC/C=C/C=C/C(=O)O[C@H]1/C(=C/C(=O)OC)C[C@H]2C[C@H]([C@@H](C)O)OC(=O)C[C@H](O)C[C@@H]3C[C@H](OC(C)=O)C(C)(C)[C@](O)(C[C@@H]4C/C(=C/C(=O)OC)C[C@H](/C=C/C(C)(C)[C@]1(O)O2)O4)O3` [Bryostatin-1, bryostatin-1], for which, in data set [1], the ECE activity result was “sustained increase”. In data set [2] (24 hours), the “concentrations producing no net effect on Aβ (biphasic inhibition)” value is listed as no less than 20 nM, the “levels of intracellular Aβ” value was “markedly reduced” and the “levels of secreted Aβ” value was “markedly reduced”. Moreover, the TACE activity result in data set [5] was “small increases”. Also, in data set [3], the “effect on cell survival (alamar Blue)” value is “no effect” and the “effect on proliferation (CyQuant)” value is “no effect”. Besides, the TACE activity result in data set [4] is “small increases”.

The values above are taken from US9889183B2, “PKC activators and anticoagulant in regimen for treating stroke” (BLANCHETTE ROCKEFELLER NEUROSCIENCES INSTITUTE, priority 2010, dated 2018).
